Test results from patent publication US8404618B2, “Herbicidal composition” (priority 2004, dated 2013).

Key:
Format in all cases: in vivo
wheat = experiment: Pre-emergent test on wheat (safener action); conditions: after 14 days, average value of two repetitions
Protocol: The test plants are sown in 48 well plates in a growth chamber. A sterilized standard earth is used as the culture substrate. In a pre-emergent stage, the herbicides are applied both by themselves and in a mixture with safeners to the soil surface. The application is carried out with an aqueous suspension of the test substances, prepared from a 25% wettable powder (Example F3,b), to achieve a field equivalent of 375 l/ha. The tests are evaluated after 14 days (100%=plants completely dead; 0%=no phytotoxic action on the plants).

maize (Marista 11f) = experiment: Post-emergent test on maize (safener action); conditions: post-emergent (GS 11), evaluated after 28 days
Protocol: The test plants are sown in containers under glasshouse conditions. A standard earth is used as the culture substrate. In a maize growth stage of one leaf (GS 11), the herbicides are applied both by themselves and in a mixture with safeners to the soil and leaf surface. The application is carried out with an aqueous suspension of the test substances, prepared from a 25% wettable powder (Example F3,b) or a suspension concentrate (Example F8), to achieve a field equivalent of 200 l/ha. The tests are evaluated after 28 days (100%=plants completely dead; 0%=no phytotoxic action on the plants).

maize = experiment: Pre-emergent test on maize (safener action); conditions: evaluated after 14 days
Protocol: The test plants are sown in seed troughs under greenhouse conditions. A standard earth is used as the culture substrate. In a pre-emergent stage, the herbicides are applied both by themselves and in a mixture with safeners to the soil surface. […] The tests are evaluated after 14 days (100%=plants completely dead; 0%=no phytotoxic action on the plants).

Row | SMILES | phytotoxic action on the plants (100%=plants completely dead; 0%=no phytotoxic action) (wheat; herbicide alone 100 g/ha) [%] | phytotoxic action on the plants (100%=plants completely dead; 0%=no phytotoxic action) (wheat; herbicide alone 200 g/ha) [%] | phytotoxic action on the plants (100%=plants completely dead; 0%=no phytotoxic action) (maize (Marista 11f); herbicide alone 37.5 g/ha) [%] | phytotoxic action on the plants (100%=plants completely dead; 0%=no phytotoxic action) (maize (Marista 11f); herbicide alone 75 g/ha) [%] | phytotoxic action on the plants (100%=plants completely dead; 0%=no phytotoxic action) (maize (Marista 11f); herbicide alone 150 g/ha) [%] | phytotoxic action on the plants (100%=plants completely dead; 0%=no phytotoxic action) (maize; herbicide alone 250 g/ha) [%] | phytotoxic action on the plants (100%=plants completely dead; 0%=no phytotoxic action) (maize; herbicide alone 500 g/ha) [%] | phytotoxic action on the plants (100%=plants completely dead; 0%=no phytotoxic action) (maize; herbicide alone 1000 g/ha) [%]
1 | Cn1nc(C(F)(F)F)c(CS(=O)(=O)C2=NOC(C)(C)C2)c1OC(F)F [Comp. 1.27, 3-(5-difluoromethoxy-1-methyl-3-trifluoromethyl-1H-pyrazol-4-ylmethylsulfonyl)-5,5-dimethyl-4,5-dihydroisoxazole] | 25 | 50 | 0 | 10 | 40 | – | – | –
2 | CC1(C)CC(S(=O)(=O)Cc2c(F)cccc2F)=NO1 [Comp. 1.41] | – | – | – | – | – | 30 | 70 | 80
3 | Cn1nc(C(F)(F)F)c(C[S+]([O-])C2=NOC(C)(C)C2)c1OC(F)F (stereo not drawn) [Comp. 1.57] | 90 | – | – | – | – | – | – | –
